ChEMBL document CHEMBL2073833, “Biliary excretion of glycyrrhizin in rats: kinetic basis for multiplicity in bile canalicular transport of organic anions” (Pharm Res, 1996)

Legend:
Details in all cases: in vivo
[1] = target: T1, ATP-binding cassette sub-family C member 2 (Rattus norvegicus, UniProt Q63120); assay: TP_TRANSPORTER: inhibition of GR biliary excretion (70.8->23.5 % of dose, DBSP: 3 uM/min/kg iv infusion, GR: 10 mg/kg iv) in EHBR rat; format: functional, organism-based, Bile; design: dose 10 mg/kg, route intravenous
[2] = target: T1, ATP-binding cassette sub-family C member 2; assay: TP_TRANSPORTER: inhibition of GR biliary excretion (70.8->23.5 % of dose, DBSP: 3 uM/min/kg iv infusion, GR: 10 mg/kg iv) in SD rat; format: functional, organism-based, Sprague-Dawley, Bile; design: dose 10 mg/kg, route intravenous
[3] = target: T1, ATP-binding cassette sub-family C member 2; assay: TP_TRANSPORTER: biliary excretion in SD rat; format: functional, organism-based, Sprague-Dawley, Bile
[4] = target: T1, ATP-binding cassette sub-family C member 2; assay: TP_TRANSPORTER: biliary excretion in EHBR rat; format: functional, organism-based, Bile

T1 sequence (Q63120 whole entry, the tested form may be a part): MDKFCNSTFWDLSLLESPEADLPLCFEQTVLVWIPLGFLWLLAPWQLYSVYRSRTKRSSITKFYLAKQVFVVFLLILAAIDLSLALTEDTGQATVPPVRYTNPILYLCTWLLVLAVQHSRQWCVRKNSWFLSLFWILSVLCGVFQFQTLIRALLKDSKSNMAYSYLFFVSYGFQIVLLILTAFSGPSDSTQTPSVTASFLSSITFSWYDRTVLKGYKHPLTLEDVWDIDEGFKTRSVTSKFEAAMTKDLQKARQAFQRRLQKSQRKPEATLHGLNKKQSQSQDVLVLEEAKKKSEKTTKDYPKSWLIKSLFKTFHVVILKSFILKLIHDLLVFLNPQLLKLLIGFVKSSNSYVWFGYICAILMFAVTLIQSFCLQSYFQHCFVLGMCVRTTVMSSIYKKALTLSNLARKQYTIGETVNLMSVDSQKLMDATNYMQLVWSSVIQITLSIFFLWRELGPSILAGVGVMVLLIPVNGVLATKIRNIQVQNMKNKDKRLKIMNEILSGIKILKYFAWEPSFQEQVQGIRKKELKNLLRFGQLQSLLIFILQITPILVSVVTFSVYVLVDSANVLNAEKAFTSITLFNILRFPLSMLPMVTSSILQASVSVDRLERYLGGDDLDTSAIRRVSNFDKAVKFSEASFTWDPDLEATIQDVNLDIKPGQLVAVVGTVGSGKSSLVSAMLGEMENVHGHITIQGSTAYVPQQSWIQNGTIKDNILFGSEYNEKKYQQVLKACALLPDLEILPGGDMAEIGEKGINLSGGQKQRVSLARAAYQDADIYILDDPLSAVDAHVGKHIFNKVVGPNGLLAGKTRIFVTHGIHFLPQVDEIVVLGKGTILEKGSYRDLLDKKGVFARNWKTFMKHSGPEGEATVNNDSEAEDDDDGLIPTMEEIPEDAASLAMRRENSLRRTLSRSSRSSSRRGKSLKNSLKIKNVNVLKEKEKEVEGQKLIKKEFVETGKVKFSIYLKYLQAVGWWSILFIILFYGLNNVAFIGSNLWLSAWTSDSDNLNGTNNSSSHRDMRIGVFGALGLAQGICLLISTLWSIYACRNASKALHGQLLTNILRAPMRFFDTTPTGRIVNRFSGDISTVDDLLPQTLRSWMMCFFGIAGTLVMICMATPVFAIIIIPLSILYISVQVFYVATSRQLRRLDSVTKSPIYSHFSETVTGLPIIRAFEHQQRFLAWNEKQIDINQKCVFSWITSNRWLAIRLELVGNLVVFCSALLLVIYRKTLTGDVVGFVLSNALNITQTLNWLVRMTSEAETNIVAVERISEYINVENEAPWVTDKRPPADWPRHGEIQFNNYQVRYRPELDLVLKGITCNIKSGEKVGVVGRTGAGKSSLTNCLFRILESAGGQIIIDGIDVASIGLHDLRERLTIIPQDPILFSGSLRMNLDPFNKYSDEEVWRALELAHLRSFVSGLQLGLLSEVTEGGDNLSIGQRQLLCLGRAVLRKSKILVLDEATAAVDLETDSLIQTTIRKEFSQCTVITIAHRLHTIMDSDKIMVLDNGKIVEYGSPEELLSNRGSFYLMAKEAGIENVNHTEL

O=C1OC(c2ccc(OS(=O)(=O)O)cc2)(c2ccc(OS(=O)(=O)O)cc2)c2c(Br)ccc(Br)c21 [DIBROMOSULFOPHTHALEIN]
Activity [1]: inhibitor [+]
Activity [2]: inhibitor [+]

CC1(C)[C@@H](O[C@H]2O[C@H](C(=O)O)[C@@H](O)[C@H](O)[C@H]2O[C@@H]2O[C@H](C(=O)O)[C@@H](O)[C@H](O)[C@H]2O)CC[C@]2(C)[C@H]3C(=O)C=C4[C@@H]5C[C@@](C)(C(=O)O)CC[C@]5(C)CC[C@@]4(C)[C@]3(C)CC[C@@H]12 [GLYCYRRHIZIN]
Activity [3]: substrate [+]
Activity [4]: substrate [+]
